Reference: patent US12077503B2, “Substituted cyclic amides and their use as herbicides” (FMC CORPORATION, priority 2015, dated 2024)

Legend:
Assay type in all cases: in vivo
Kochia (Kochia scoparia) [1] = assay: Test A preemergence; conditions: Bassia scoparia, pre-emergence, 240 h, 0 to 100 scale where 0 is no effect and 100 is complete control, read-out: Kochia plant response rating; for pest or weed control at 31 g/ha: 31 g ai/ha, Preemergence; for pest or weed control at 125 g/ha: 125 g ai/ha, preemergence, visual injury rating, approximately 10 d
Procedure, shortened: (§1)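 In a loam soil and sand blend, planted seeds got a preemergence directed soil spray, and young plants at the one- to two-leaf stage, 2–10 cm high, got a postemergence application; ~10 d greenhouse hold; injury rated visually, 0 = none, 100 = complete control.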

[2] = system: barnyardgrass (Echinochloa crus-galli); assay: Test A preemergence; conditions: Echinochloa crus-galli, pre-emergence, 240 h, 0 to 100 scale where 0 is no effect and 100 is complete control, read-out: Barnyardgrass plant response rating; for pest or weed control at 31 g/ha: 31 g ai/ha, Preemergence; for pest or weed control at 125 g/ha: 125 g ai/ha, preemergence, visual injury rating, approximately 10 d
Procedure, shortened: as §1

[3] = system: giant foxtail (Setaria faberii); assay: Test A preemergence; conditions: Setaria faberi, pre-emergence, 240 h, 0 to 100 scale where 0 is no effect and 100 is complete control, read-out: Foxtail, Giant plant response rating; for pest or weed control at 31 g/ha: 31 g ai/ha, Preemergence; for pest or weed control at 125 g/ha: 125 g ai/ha, preemergence, visual injury rating, approximately 10 d
Procedure, shortened: as §1

[4] = system: pigweed (Amaranthus retroflexus); assay: Test A preemergence; conditions: Amaranthus retroflexus, pre-emergence, 240 h, 0 to 100 scale where 0 is no effect and 100 is complete control, read-out: Pigweed plant response rating; for pest or weed control at 31 g/ha: 31 g ai/ha, Preemergence; for pest or weed control at 125 g/ha: 125 g ai/ha, preemergence, visual injury rating, approximately 10 d
[5] = system: ragweed (common ragweed, Ambrosia elatior); assay: Test A preemergence; conditions: Ambrosia artemisiifolia, pre-emergence, 240 h, 0 to 100 scale where 0 is no effect and 100 is complete control, read-out: Ragweed plant response rating; for pest or weed control at 31 g/ha: 31 g ai/ha, Preemergence; for pest or weed control at 125 g/ha: 125 g ai/ha, preemergence, visual injury rating, approximately 10 d
Procedure, shortened: as §1

[6] = system: ryegrass, Italian (Italian ryegrass, Lolium multiflorum); assay: Test A preemergence; conditions: Lolium multiflorum, pre-emergence, 240 h, 0 to 100 scale where 0 is no effect and 100 is complete control, read-out: Ryegrass, Italian plant response rating; for pest or weed control at 31 g/ha: 31 g ai/ha, Preemergence; for pest or weed control at 125 g/ha: 125 g ai/ha, preemergence, visual injury rating, approximately 10 d
Procedure, shortened: as §1

[7] = system: Galium (catchweed bedstraw, Galium aparine); assay: Test A postemergence; conditions: Galium, post-emergence, 240 h; for pest or weed control at 125 g/ha: 125 g ai/ha, postemergence, visual injury vs untreated controls after approx. 10 d, 0 = no effect, 100 = complete control, read-out: Galium plant response rating (0 to 100 scale); for pest or weed control at 31 g/ha: Postemergence, 31 g ai/ha, visual injury after approx. 10 d, 0 to 100 scale, 0 no effect, 100 complete control, read-out: Plant response rating, Galium
Procedure, shortened: as §1

Kochia (Kochia scoparia) [8] = assay: Test A postemergence; conditions: Bassia scoparia, post-emergence, 240 h; for pest or weed control at 125 g/ha: 125 g ai/ha, postemergence, visual injury vs untreated controls after approx. 10 d, 0 = no effect, 100 = complete control, read-out: Kochia plant response rating (0 to 100 scale); for pest or weed control at 31 g/ha: Postemergence, 31 g ai/ha, visual injury after approx. 10 d, 0 to 100 scale, 0 no effect, 100 complete control, read-out: Plant response rating, Kochia
Procedure, shortened: as §1

[9] = system: barnyardgrass (Echinochloa crus-galli); assay: Test A postemergence; conditions: Echinochloa crus-galli, post-emergence, 240 h; for pest or weed control at 125 g/ha: 125 g ai/ha, postemergence, visual injury vs untreated controls after approx. 10 d, 0 = no effect, 100 = complete control, read-out: Barnyardgrass plant response rating (0 to 100 scale); for pest or weed control at 31 g/ha: Postemergence, 31 g ai/ha, visual injury after approx. 10 d, 0 to 100 scale, 0 no effect, 100 complete control, read-out: Plant response rating, Barnyardgrass
Procedure, shortened: as §1

[10] = system: blackgrass (Alopecurus myosuroides); assay: Test A postemergence; conditions: Alopecurus myosuroides, post-emergence, 240 h; for pest or weed control at 125 g/ha: 125 g ai/ha, postemergence, visual injury vs untreated controls after approx. 10 d, 0 = no effect, 100 = complete control, read-out: Blackgrass plant response rating (0 to 100 scale); for pest or weed control at 31 g/ha: Postemergence, 31 g ai/ha, visual injury after approx. 10 d, 0 to 100 scale, 0 no effect, 100 complete control, read-out: Plant response rating, Blackgrass
Procedure, shortened: as §1

corn (Zea mays) = assay: Test A postemergence; conditions: Zea mays, post-emergence, 240 h; for plant injury at 125 g/ha: 125 g ai/ha, postemergence, visual injury vs untreated controls after approx. 10 d, 0 = no effect, 100 = complete control, read-out: Corn plant response rating (0 to 100 scale); for Corn plant response rating (crop injury, 0 = no effect, 100 = complete kill) at 31 g/ha: Postemergence, 31 g ai/ha, visual injury after approx. 10 d, 0 to 100 scale, 100 complete control
Procedure, shortened: as §1

[11] = system: giant foxtail (Setaria faberii); assay: Test A postemergence; conditions: Setaria faberi, post-emergence, 240 h; for pest or weed control at 125 g/ha: 125 g ai/ha, postemergence, visual injury vs untreated controls after approx. 10 d, 0 = no effect, 100 = complete control, read-out: Foxtail, Giant plant response rating (0 to 100 scale); for pest or weed control at 31 g/ha: Postemergence, 31 g ai/ha, visual injury after approx. 10 d, 0 to 100 scale, 0 no effect, 100 complete control, read-out: Plant response rating, Foxtail, Giant
Procedure, shortened: as §1

[12] = system: pigweed (Amaranthus retroflexus); assay: Test A postemergence; conditions: Amaranthus retroflexus, post-emergence, 240 h, 125 g ai/ha, postemergence, visual injury vs untreated controls after approx. 10 d; 0 = no effect, 100 = complete control; read-out: Pigweed plant response rating (0 to 100 scale)
Procedure, shortened: as §1

[13] = system: ragweed (common ragweed, Ambrosia elatior); assay: Test A postemergence; conditions: Ambrosia artemisiifolia, post-emergence, 240 h, 125 g ai/ha, postemergence, visual injury vs untreated controls after approx. 10 d; 0 = no effect, 100 = complete control; read-out: Ragweed plant response rating (0 to 100 scale)
Procedure, shortened: as §1

[14] = system: ryegrass, Italian (Italian ryegrass, Lolium multiflorum); assay: Test A postemergence; conditions: Lolium multiflorum, post-emergence, 240 h, 125 g ai/ha, postemergence, visual injury vs untreated controls after approx. 10 d; 0 = no effect, 100 = complete control; read-out: Ryegrass, Italian plant response rating (0 to 100 scale)
Procedure, shortened: as §1

[15] = system: wheat (Triticum aestivum); assay: Test A postemergence; conditions: Triticum aestivum, post-emergence, 240 h, 125 g ai/ha, postemergence, visual injury vs untreated controls after approx. 10 d; 0 = no effect, 100 = complete control; read-out: Wheat plant response rating (0 to 100 scale)
Procedure, shortened: as §1

[16] = system: barnyardgrass (Echinochloa crus-galli); assay: Test B flooded paddy test; conditions: Echinochloa crus-galli, 250 g ai/ha, Flood; 0 to 100 scale where 0 is no effect and 100 is complete control; read-out: Barnyardgrass plant response rating
Procedure, shortened: (§2)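 2-leaf plants; pots flooded 3 cm over soil; cpd added to paddy water; depth held; greenhouse 13–15 d; visual rating vs controls, 0 = no effect, 100 = complete control.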

[17] = system: ducksalad (Heteranthera limosa); assay: Test B flooded paddy test; conditions: Heteranthera limosa, 250 g ai/ha, Flood; 0 to 100 scale where 0 is no effect and 100 is complete control; read-out: Ducksalad plant response rating
Procedure, shortened: as §2

rice (Oryra sativa) = assay: Test B flooded paddy test; conditions: Oryza sativa, 250 g ai/ha, Flood; 0 to 100 scale where 0 is no effect and 100 is complete control; read-out: Rice plant response rating
Procedure, shortened: as §2

[18] = system: sedge, umbrella (small-flower umbrella sedge, Cyperus difformis); assay: Test B flooded paddy test; conditions: Cyperus difformis, 250 g ai/ha, Flood; 0 to 100 scale where 0 is no effect and 100 is complete control; read-out: Sedge, Umbrella plant response rating
Procedure, shortened: as §2

| SMILES | pest or weed control at 31 g/ha (Kochia (Kochia scoparia) [1]) [%] | pest or weed control at 125 g/ha (Kochia (Kochia scoparia) [1]) [%] | pest or weed control at 31 g/ha [2] [%] | pest or weed control at 125 g/ha [2] [%] | pest or weed control at 31 g/ha [3] [%] | pest or weed control at 125 g/ha [3] [%] | pest or weed control at 31 g/ha [4] [%] | pest or weed control at 125 g/ha [4] [%] | pest or weed control at 31 g/ha [5] [%] | pest or weed control at 125 g/ha [5] [%] | pest or weed control at 31 g/ha [6] [%] | pest or weed control at 125 g/ha [6] [%] | pest or weed control at 125 g/ha [7] [%] | pest or weed control at 31 g/ha [7] [%] | pest or weed control at 125 g/ha (Kochia (Kochia scoparia) [8]) [%] | pest or weed control at 31 g/ha (Kochia (Kochia scoparia) [8]) [%] | pest or weed control at 125 g/ha [9] [%] | pest or weed control at 31 g/ha [9] [%] | pest or weed control at 125 g/ha [10] [%] | pest or weed control at 31 g/ha [10] [%] | further results |
| --- | --- | --- | --- | --- | --- | --- | --- | --- | --- | --- | --- | --- | --- | --- | --- | --- | --- | --- | --- | --- | --- |
| Cc1ccc([C@H]2CN(C)C(=O)[C@@H]2C(=O)Nc2cccc(F)c2C)cc1 [Compound 1186] | 70 | 80 | 90 | 100 | 100 | 100 | 30 | 70 | 0 | 60 | 20 | 70 | 60 | 50 | 60 | 20 | 100 | 100 | 80 | 70 | plant injury at 125 g/ha (corn (Zea mays)): 80%; Corn plant response rating (crop injury, 0 = no effect, 100 = complete kill) at 31 g/ha (corn (Zea mays)): 30%; pest or weed control at 125 g/ha [11]: 90%; pest or weed control at 31 g/ha [11]: 90%; pest or weed control at 125 g/ha [12]: 0%; pest or weed control at 125 g/ha [13]: 70%; pest or weed control at 125 g/ha [14]: 50%; plant injury at 125 g/ha [15]: 60%; pest or weed control at 250 g/ha [16]: 75%; pest or weed control at 250 g/ha [17]: 60%; pest or weed control at 250 g/ha (rice (Oryra sativa)): 30%; pest or weed control at 250 g/ha [18]: 0% |
| CSc1ccccc1NC(=O)[C@H]1C(=O)N(C)C[C@@H]1c1ccc(C)cc1 [Compound 1187] | 50 | 70 | 70 | 100 | 90 | 100 | 0 | 20 | 0 | 50 | 0 | 40 | 50 | 20 | 20 | 0 | 100 | 20 | 40 | 0 | plant injury at 125 g/ha (corn (Zea mays)): 0%; Corn plant response rating (crop injury, 0 = no effect, 100 = complete kill) at 31 g/ha (corn (Zea mays)): 0%; pest or weed control at 125 g/ha [11]: 80%; pest or weed control at 31 g/ha [11]: 40%; pest or weed control at 125 g/ha [12]: 0%; pest or weed control at 125 g/ha [13]: 0%; pest or weed control at 125 g/ha [14]: 20%; plant injury at 125 g/ha [15]: 20%; pest or weed control at 250 g/ha [16]: 60%; pest or weed control at 250 g/ha [17]: 85%; pest or weed control at 250 g/ha (rice (Oryra sativa)): 0%; pest or weed control at 250 g/ha [18]: 0% |
